Measurements: PMC4281207, “Dr-FtsA, an Actin Homologue in Deinococcus radiodurans Differentially Affects Dr-FtsZ and Ec-FtsZ Functions In Vitro” (PLoS ONE, 2014)

Experiments:
Dr-FtsZ [1] = target: T1, Dr-FtsZ (Deinococcus radiodurans, UniProt Q9RWN5); assay: malachite green Pi release; [α[…]]-GTP TLC; format: biochemical; conditions: PIPES pH 7.5, 50 mM KCl, 2 mM MgCl2, 1 mM GTP (0.5 mM in TLC assay), 37 °C
T1 construct: 42 kDa
T1 sequence (Q9RWN5 1-371): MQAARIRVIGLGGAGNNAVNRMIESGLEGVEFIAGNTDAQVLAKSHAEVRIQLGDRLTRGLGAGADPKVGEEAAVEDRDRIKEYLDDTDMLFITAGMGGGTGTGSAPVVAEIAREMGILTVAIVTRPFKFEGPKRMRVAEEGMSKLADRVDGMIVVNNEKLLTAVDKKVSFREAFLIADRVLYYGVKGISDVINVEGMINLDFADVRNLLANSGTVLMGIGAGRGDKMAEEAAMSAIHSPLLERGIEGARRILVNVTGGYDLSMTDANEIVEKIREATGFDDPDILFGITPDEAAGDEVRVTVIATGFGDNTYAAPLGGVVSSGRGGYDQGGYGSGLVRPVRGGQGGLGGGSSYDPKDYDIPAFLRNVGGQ

Dr-FtsZ [2] = target: T1, Dr-FtsZ; assay: stimulation of GTPase activity; [α[…]]-GTP TLC; format: biochemical; conditions: 0.5 mM ATP, 0.5 mM GTP, 2 mM MgCl2, PIPES pH 7.5, 37 °C; activator, site not known; ATP not hydrolysed
Dr-FtsA = target: T2, Dr-FtsA (Deinococcus radiodurans, UniProt Q9RWN6); assay: circular dichroism; transmission electron microscopy of polymers; format: binding; conditions: 10 µM ATP (CD) or 1 mM ATP (TEM), 37 °C; 25 mM PIPES pH 7.5, 50 mM KCl, with or without 5 mM MgCl2 (TEM); ATP not hydrolysed
T2 construct: full-length from pBADDFtsA (pBAD/HisA), expressed in E. coli TOP10; His tag removed; 54 kDa
T2 sequence (Q9RWN6 1-517): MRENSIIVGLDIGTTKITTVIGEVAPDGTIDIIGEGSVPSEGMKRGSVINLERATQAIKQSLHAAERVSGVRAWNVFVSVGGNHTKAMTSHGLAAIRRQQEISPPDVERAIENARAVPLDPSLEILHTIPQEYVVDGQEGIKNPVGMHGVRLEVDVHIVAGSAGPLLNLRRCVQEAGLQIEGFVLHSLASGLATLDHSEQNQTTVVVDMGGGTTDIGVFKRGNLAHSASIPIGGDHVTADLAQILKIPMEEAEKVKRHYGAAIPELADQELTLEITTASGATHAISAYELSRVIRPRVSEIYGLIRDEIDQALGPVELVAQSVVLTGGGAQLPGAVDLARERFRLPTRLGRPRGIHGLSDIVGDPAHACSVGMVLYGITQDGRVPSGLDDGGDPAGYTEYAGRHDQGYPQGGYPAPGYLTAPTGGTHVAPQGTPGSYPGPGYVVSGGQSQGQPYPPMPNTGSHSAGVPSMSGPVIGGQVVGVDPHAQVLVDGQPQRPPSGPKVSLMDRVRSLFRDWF

## Nc1nc2c(ncn2[C@@H]2O[C@H](COP(=O)(O)OP(=O)(O)OP(=O)(O)O)[C@@H](O)[C@H]2O)c(=O)[nH]1 [GTP]
Dr-FtsZ [1]
  malachite green Pi release; [α32P]-GTP TLC: GTPase activity of Dr-FtsZ was stimulated in the presence of Dr-FtsA

## Nc1ncnc2c1ncn2[C@@H]1O[C@H](COP(=O)(O)OP(=O)(O)OP(=O)(O)O)[C@@H](O)[C@H]1O [ATP]
Dr-FtsZ [2]
  stimulation of GTPase activity; [α32P]-GTP TLC: the GTPase activity of Dr-FtsZ was stimulated in the presence of ATP (Fig. 2C)
Dr-FtsA
  circular dichroism; transmission electron microscopy of polymers: had the correct secondary structure assignment, and interacted with ATP in solution
